Experimental data reported in patent US9340600B2 (Indiana University Research and Technology Corporation, priority 2012, dated 2016).
*1 amine or outer side, *2 acyl side, *3 side chain or, on linkers, in order; H or OH if unused. Where a SMILES comes first, the peptide text is derived from it. Side-chain parts run from the residue outwards. [ ]: non-standard residue; d: D form. The star is where a group is joined. γGlu = O=C(O)[C@H](CCC(=O)[*:2])N[*:1]; Palmitoyl = CCCCCCCCCCCCCCCC(=O)*; Orn = NCCC[C@H](N)C(=O)O; Dab = NCC[C@H](N)C(=O)O; Nva = CCC[C@H](N)C(=O)O; Aib = CC(C)(N)C(=O)O

Columns and labels:
Assay type in all cases: cell-based
glucagon receptor = molecular target: T1, glucagon receptor (Homo sapiens, UniProt P47871); test: cAMP induction, firefly luciferase-based reporter assay in HEK293 cells co-transfected with glucagon receptor; settings: EC50 at Glucagon Receptor, Table 3, analogs of SEQ ID NO: 18 varying at position 3
T1 construct: expressed in transfected cells; host or cells: HEK293
Source text: (§1) This example describes an exemplary method of testing the biological activity of the peptides of the present disclosures, which method involves assaying cAMP synthesis.

GLP-1 receptor = molecular target: T2, GLP-1 receptor (Homo sapiens, UniProt P43220); test: cAMP induction, firefly luciferase-based reporter assay in HEK293 cells co-transfected with GLP-1 receptor; settings: EC50 at GLP-1 Receptor, Table 3, analogs of SEQ ID NO: 18 varying at position 3
T2 construct: expressed in transfected cells; host or cells: HEK293
Source text: as §1

GIP receptor = molecular target: T3, GIP receptor (Homo sapiens, UniProt P48546); test: cAMP induction, firefly luciferase-based reporter assay in HEK293 cells co-transfected with GIP receptor; settings: EC50 at GIP Receptor, Table 3, analogs of SEQ ID NO: 18 varying at position 3
T3 construct: expressed in transfected cells; host or cells: HEK293
T3 sequence (P48546 22-466): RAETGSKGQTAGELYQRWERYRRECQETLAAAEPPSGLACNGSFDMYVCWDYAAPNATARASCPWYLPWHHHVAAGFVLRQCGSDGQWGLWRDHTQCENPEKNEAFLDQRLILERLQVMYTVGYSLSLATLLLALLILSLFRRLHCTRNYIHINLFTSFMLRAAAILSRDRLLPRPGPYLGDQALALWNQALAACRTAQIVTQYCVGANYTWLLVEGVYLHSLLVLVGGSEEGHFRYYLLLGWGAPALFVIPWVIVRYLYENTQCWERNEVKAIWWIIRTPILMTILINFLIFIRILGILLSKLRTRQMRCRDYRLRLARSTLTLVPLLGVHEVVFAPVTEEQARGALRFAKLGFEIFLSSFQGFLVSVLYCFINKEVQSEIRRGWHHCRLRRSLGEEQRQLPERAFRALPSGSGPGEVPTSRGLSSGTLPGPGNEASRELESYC
Source text: as §1

T2 sequence (P43220 24-463): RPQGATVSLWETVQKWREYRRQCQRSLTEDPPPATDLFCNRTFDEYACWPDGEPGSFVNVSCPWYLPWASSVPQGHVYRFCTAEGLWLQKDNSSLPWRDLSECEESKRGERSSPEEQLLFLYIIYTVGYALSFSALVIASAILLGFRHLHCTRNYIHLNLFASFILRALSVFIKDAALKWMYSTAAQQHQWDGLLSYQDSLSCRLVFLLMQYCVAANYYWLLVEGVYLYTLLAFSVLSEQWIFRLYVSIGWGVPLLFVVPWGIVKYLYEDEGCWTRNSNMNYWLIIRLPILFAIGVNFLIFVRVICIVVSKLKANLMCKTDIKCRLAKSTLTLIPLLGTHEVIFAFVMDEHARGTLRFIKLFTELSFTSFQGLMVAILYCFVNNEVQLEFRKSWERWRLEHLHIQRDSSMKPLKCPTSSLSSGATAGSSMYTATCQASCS
T1 sequence (P47871 26-477): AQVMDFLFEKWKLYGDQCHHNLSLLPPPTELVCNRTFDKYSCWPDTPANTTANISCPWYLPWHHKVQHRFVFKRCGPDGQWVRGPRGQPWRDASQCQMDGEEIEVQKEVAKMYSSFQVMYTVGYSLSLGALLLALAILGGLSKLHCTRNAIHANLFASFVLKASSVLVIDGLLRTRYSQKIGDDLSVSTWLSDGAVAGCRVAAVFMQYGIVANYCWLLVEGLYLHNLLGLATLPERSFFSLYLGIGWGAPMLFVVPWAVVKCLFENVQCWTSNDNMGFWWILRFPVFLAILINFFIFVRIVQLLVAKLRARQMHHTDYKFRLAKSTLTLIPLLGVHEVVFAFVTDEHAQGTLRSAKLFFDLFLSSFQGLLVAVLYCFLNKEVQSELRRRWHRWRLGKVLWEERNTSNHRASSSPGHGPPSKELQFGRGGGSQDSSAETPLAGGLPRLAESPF

## CCCCCCCCCCCCCCCC(=O)N[C@@H](CCC(=O)NCCCC[C@H](NC(=O)[C@H](CC(=O)O)NC(=O)[C@H](CO)NC(=O)[C@@H](NC(=O)[C@H](Cc1ccccc1)NC(=O)[C@@H](NC(=O)CNC(=O)[C@H](CCCNC(C)=O)NC(=O)C(C)(C)NC(=O)[C@@H](N)Cc1c[nH]cn1)[C@@H](C)O)[C@@H](C)O)C(=O)N[C@@H](CO)C(=O)N[C@@H](CCCCN)C(=O)N[C@@H](Cc1ccc(O)cc1)C(=O)N[C@@H](CC(C)C)C(=O)N[C@@H](CCC(=O)O)C(=O)N[C@@H](CCC(=O)O)C(=O)N[C@@H](CCCNC(=N)N)C(=O)N[C@@H](C)C(=O)N[C@@H](C)C(=O)N[C@@H](CCC(N)=O)C(=O)N[C@@H](CCC(=O)O)C(=O)N[C@@H](Cc1ccccc1)C(=O)N[C@H](C(=O)N[C@@H](CCC(N)=O)C(=O)N[C@@H](Cc1c[nH]c2ccccc12)C(=O)N[C@@H](CC(C)C)C(=O)N[C@@H](CC(C)C)C(=O)N[C@@H](CCC(=O)O)C(=O)NCC(=O)NCC(=O)N1CCC[C@H]1C(=O)N[C@@H](CO)C(=O)N[C@@H](CO)C(=O)NCC(=O)N[C@@H](C)C(=O)N1CCC[C@H]1C(=O)N1CCC[C@H]1C(=O)N1CCC[C@H]1C(=O)N[C@@H](CO)C(N)=O)C(C)C)C(=O)O [compound 34] (H-H[Aib][Orn](Ac)GTFTSDK([γGlu-Palmitoyl])SKYLEERAAQEFVQWLLEGGPSSGAPPPS-NH2; N-terminus assumed)
Glucagon receptor
  EC50: 368 pM
GLP-1 receptor
  EC50: 1 pM
GIP receptor
  EC50: 20 pM

## CCCCCCCCCCCCCCCC(=O)N[C@@H](CCC(=O)NCCCC[C@H](NC(=O)[C@H](CC(=O)O)NC(=O)[C@H](CO)NC(=O)[C@@H](NC(=O)[C@H](Cc1ccccc1)NC(=O)[C@@H](NC(=O)CNC(=O)[C@H](C)NC(=O)C(C)(C)NC(=O)[C@@H](N)Cc1c[nH]cn1)[C@@H](C)O)[C@@H](C)O)C(=O)N[C@@H](CO)C(=O)N[C@@H](CCCCN)C(=O)N[C@@H](Cc1ccc(O)cc1)C(=O)N[C@@H](CC(C)C)C(=O)N[C@@H](CCC(=O)O)C(=O)N[C@@H](CCC(=O)O)C(=O)N[C@@H](CCCNC(=N)N)C(=O)N[C@@H](C)C(=O)N[C@@H](C)C(=O)N[C@@H](CCC(N)=O)C(=O)N[C@@H](CCC(=O)O)C(=O)N[C@@H](Cc1ccccc1)C(=O)N[C@H](C(=O)N[C@@H](CCC(N)=O)C(=O)N[C@@H](Cc1c[nH]c2ccccc12)C(=O)N[C@@H](CC(C)C)C(=O)N[C@@H](CC(C)C)C(=O)N[C@@H](CCC(=O)O)C(=O)NCC(=O)NCC(=O)N1CCC[C@H]1C(=O)N[C@@H](CO)C(=O)N[C@@H](CO)C(=O)NCC(=O)N[C@@H](C)C(=O)N1CCC[C@H]1C(=O)N1CCC[C@H]1C(=O)N1CCC[C@H]1C(=O)N[C@@H](CO)C(N)=O)C(C)C)C(=O)O [compound 35] (H-H[Aib]AGTFTSDK([γGlu-Palmitoyl])SKYLEERAAQEFVQWLLEGGPSSGAPPPS-NH2; N-terminus assumed)
Glucagon receptor
  EC50: 73 pM
GLP-1 receptor
  EC50: 2 pM
GIP receptor
  EC50: 6 pM

## CCCCCCCCCCCCCCCC(=O)N[C@@H](CCC(=O)NCCCC[C@H](NC(=O)[C@H](CC(=O)O)NC(=O)[C@H](CO)NC(=O)[C@@H](NC(=O)[C@H](Cc1ccccc1)NC(=O)[C@@H](NC(=O)CNC(=O)[C@H](CCNC(C)=O)NC(=O)C(C)(C)NC(=O)[C@@H](N)Cc1c[nH]cn1)[C@@H](C)O)[C@@H](C)O)C(=O)N[C@@H](CO)C(=O)N[C@@H](CCCCN)C(=O)N[C@@H](Cc1ccc(O)cc1)C(=O)N[C@@H](CC(C)C)C(=O)N[C@@H](CCC(=O)O)C(=O)N[C@@H](CCC(=O)O)C(=O)N[C@@H](CCCNC(=N)N)C(=O)N[C@@H](C)C(=O)N[C@@H](C)C(=O)N[C@@H](CCC(N)=O)C(=O)N[C@@H](CCC(=O)O)C(=O)N[C@@H](Cc1ccccc1)C(=O)N[C@H](C(=O)N[C@@H](CCC(N)=O)C(=O)N[C@@H](Cc1c[nH]c2ccccc12)C(=O)N[C@@H](CC(C)C)C(=O)N[C@@H](CC(C)C)C(=O)N[C@@H](CCC(=O)O)C(=O)NCC(=O)NCC(=O)N1CCC[C@H]1C(=O)N[C@@H](CO)C(=O)N[C@@H](CO)C(=O)NCC(=O)N[C@@H](C)C(=O)N1CCC[C@H]1C(=O)N1CCC[C@H]1C(=O)N1CCC[C@H]1C(=O)N[C@@H](CO)C(N)=O)C(C)C)C(=O)O [compound 36] (H-H[Aib][Dab](Ac)GTFTSDK([γGlu-Palmitoyl])SKYLEERAAQEFVQWLLEGGPSSGAPPPS-NH2; N-terminus assumed)
Glucagon receptor
  EC50: 9 pM
GLP-1 receptor
  EC50: 3 pM
GIP receptor
  EC50: 14 pM

## CCCCCCCCCCCCCCCC(=O)N[C@@H](CCC(=O)NCCCC[C@H](NC(=O)[C@H](CC(=O)O)NC(=O)[C@H](CO)NC(=O)[C@@H](NC(=O)[C@H](Cc1ccccc1)NC(=O)[C@@H](NC(=O)CNC(=O)[C@@H](NC(=O)C(C)(C)NC(=O)[C@@H](N)Cc1c[nH]cn1)C(C)C)[C@@H](C)O)[C@@H](C)O)C(=O)N[C@@H](CO)C(=O)N[C@@H](CCCCN)C(=O)N[C@@H](Cc1ccc(O)cc1)C(=O)N[C@@H](CC(C)C)C(=O)N[C@@H](CCC(=O)O)C(=O)N[C@@H](CCC(=O)O)C(=O)N[C@@H](CCCNC(=N)N)C(=O)N[C@@H](C)C(=O)N[C@@H](C)C(=O)N[C@@H](CCC(N)=O)C(=O)N[C@@H](CCC(=O)O)C(=O)N[C@@H](Cc1ccccc1)C(=O)N[C@H](C(=O)N[C@@H](CCC(N)=O)C(=O)N[C@@H](Cc1c[nH]c2ccccc12)C(=O)N[C@@H](CC(C)C)C(=O)N[C@@H](CC(C)C)C(=O)N[C@@H](CCC(=O)O)C(=O)NCC(=O)NCC(=O)N1CCC[C@H]1C(=O)N[C@@H](CO)C(=O)N[C@@H](CO)C(=O)NCC(=O)N[C@@H](C)C(=O)N1CCC[C@H]1C(=O)N1CCC[C@H]1C(=O)N1CCC[C@H]1C(=O)N[C@@H](CO)C(N)=O)C(C)C)C(=O)O [compound 37] (H-H[Aib]VGTFTSDK([γGlu-Palmitoyl])SKYLEERAAQEFVQWLLEGGPSSGAPPPS-NH2; N-terminus assumed)
Glucagon receptor
  EC50: 29 pM
GLP-1 receptor
  EC50: 2 pM
GIP receptor
  EC50: 2 pM

## CCCCCCCCCCCCCCCC(=O)N[C@@H](CCC(=O)NCCCC[C@H](NC(=O)[C@H](CC(=O)O)NC(=O)[C@H](CO)NC(=O)[C@@H](NC(=O)[C@H](Cc1ccccc1)NC(=O)[C@@H](NC(=O)CNC(=O)[C@H](CCC)NC(=O)C(C)(C)NC(=O)[C@@H](N)Cc1c[nH]cn1)[C@@H](C)O)[C@@H](C)O)C(=O)N[C@@H](CO)C(=O)N[C@@H](CCCCN)C(=O)N[C@@H](Cc1ccc(O)cc1)C(=O)N[C@@H](CC(C)C)C(=O)N[C@@H](CCC(=O)O)C(=O)N[C@@H](CCC(=O)O)C(=O)N[C@@H](CCCNC(=N)N)C(=O)N[C@@H](C)C(=O)N[C@@H](C)C(=O)N[C@@H](CCC(N)=O)C(=O)N[C@@H](CCC(=O)O)C(=O)N[C@@H](Cc1ccccc1)C(=O)N[C@H](C(=O)N[C@@H](CCC(N)=O)C(=O)N[C@@H](Cc1c[nH]c2ccccc12)C(=O)N[C@@H](CC(C)C)C(=O)N[C@@H](CC(C)C)C(=O)N[C@@H](CCC(=O)O)C(=O)NCC(=O)NCC(=O)N1CCC[C@H]1C(=O)N[C@@H](CO)C(=O)N[C@@H](CO)C(=O)NCC(=O)N[C@@H](C)C(=O)N1CCC[C@H]1C(=O)N1CCC[C@H]1C(=O)N1CCC[C@H]1C(=O)N[C@@H](CO)C(N)=O)C(C)C)C(=O)O [compound 38] (H-H[Aib][Nva]GTFTSDK([γGlu-Palmitoyl])SKYLEERAAQEFVQWLLEGGPSSGAPPPS-NH2; N-terminus assumed)
Glucagon receptor
  EC50: 55 pM
GLP-1 receptor
  EC50: 2 pM
GIP receptor
  EC50: 4 pM

## CCCCCCCCCCCCCCCC(=O)N[C@@H](CCC(=O)NCCCC[C@H](NC(=O)[C@H](CC(=O)O)NC(=O)[C@H](CO)NC(=O)[C@@H](NC(=O)[C@H](Cc1ccccc1)NC(=O)[C@@H](NC(=O)CNC(=O)[C@H](CCCCNC(C)=O)NC(=O)C(C)(C)NC(=O)[C@@H](N)Cc1c[nH]cn1)[C@@H](C)O)[C@@H](C)O)C(=O)N[C@@H](CO)C(=O)N[C@@H](CCCCN)C(=O)N[C@@H](Cc1ccc(O)cc1)C(=O)N[C@@H](CC(C)C)C(=O)N[C@@H](CCC(=O)O)C(=O)N[C@@H](CCC(=O)O)C(=O)N[C@@H](CCCNC(=N)N)C(=O)N[C@@H](C)C(=O)N[C@@H](C)C(=O)N[C@@H](CCC(N)=O)C(=O)N[C@@H](CCC(=O)O)C(=O)N[C@@H](Cc1ccccc1)C(=O)N[C@H](C(=O)N[C@@H](CCC(N)=O)C(=O)N[C@@H](Cc1c[nH]c2ccccc12)C(=O)N[C@@H](CC(C)C)C(=O)N[C@@H](CC(C)C)C(=O)N[C@@H](CCC(=O)O)C(=O)NCC(=O)NCC(=O)N1CCC[C@H]1C(=O)N[C@@H](CO)C(=O)N[C@@H](CO)C(=O)NCC(=O)N[C@@H](C)C(=O)N1CCC[C@H]1C(=O)N1CCC[C@H]1C(=O)N1CCC[C@H]1C(=O)N[C@@H](CO)C(N)=O)C(C)C)C(=O)O [compound 39] (H-H[Aib]K(Ac)GTFTSDK([γGlu-Palmitoyl])SKYLEERAAQEFVQWLLEGGPSSGAPPPS-NH2; N-terminus assumed)
Glucagon receptor
  EC50: 543 pM
GLP-1 receptor
  EC50: 10 pM
GIP receptor
  EC50: 336 pM
